Source: patent publication US10828301B2, “2,4-pyrimidinediamine compounds and their uses” (Rigel Pharmaceuticals, Inc, priority 2002, dated 2020)

How the values were obtained:
[1] = system: cultured human mast cells (CHMC); assay: CHMC low cell density ionomycin activation: tryptase assay; format: cell-based; conditions: Homo sapiens, Mast cell, Low Density CHMC, ionomycin activation, tryptase readout; read-out: CHMC Ionomycin Tryptase
[2] = system: cultured human mast cells (CHMC); assay: CHMC low cell density IgE activation: tryptase and LTC4 assays; format: cell-based; conditions: Homo sapiens, Mast cell, Low Density CHMC, anti-IgE activation, tryptase readout; read-out: CHMC anti-IgE Tryptase
Description: Pellet CHMC cells (980 rpm, 10 min) and resuspend in pre-warmed MT. Add 65 ul of cells to each 96-well plate. Depending on the degranulation activity for each particular CHMC donor, load 1000-1500 cells/well. Mix four times followed by a 1 hr incubation at 37° C. […] Stimulate cells by adding 25 ul of 6× anti-IgE solution to the appropriate plates. Add 25 ul MT to un-stimulated control wells. Mix twice following addition of the anti-IgE. Incubate at 37° C. for 30 minutes. […] Spin plates at 1000 rpm for 10 min to pellet cells. Transfer 25 ul of supernatant to a 96-well black bottom plate and add 100 ul of freshly diluted tryptase substrate solution to each well. Incubate plates at room temperature for 30 min.
Leukotriene C4 (LTC4) is also quantified using an ELISA kit on appropriately diluted supernatant samples (determined empirically for each donor cell population so that the sample measurement falls within the standard curve) following the supplier's instructions.

| SMILES | IC50 [1] [µM] | IC50 [2] [µM] |
| --- | --- | --- |
| O=C(NCC(O)CO)c1cc2cc(Nc3ncc(F)c(Nc4ccc5c(c4)OCCO5)n3)ccc2o1 (stereo not shown) [Compound R926783, N2-[2-(N-2,3-Dihydroxypropylamino)carbonylbenzofuran-5-yl]-N4-(3,4-ethylenedioxyphenyl)-5-fluoro-2,4-pyrimidinediamine] | > 10 | 0.304 |
| CC(C)c1ccc(Nc2ncc(F)c(Nc3ccc4c(c3)OCCO4)n2)cc1 [Compound R926790, N4-(3,4-Ethylenedioxyphenyl)-5-fluoro-N2-(4-isopropylphenyl)-2,4-pyrimidinediamine] | 7.41 | 0.462 |
| Fc1cnc(Nc2ccc3c(c2)OCCO3)nc1Nn1cccc1 [Compound R935277, N2-(3,4-Ethylenedioxyphenyl)-5-Fluoro-N4-(1H-pyrrol-1-yl)-2,4-pyrimidinediamine] | 8.9 | 22.9 |
| CCOC(=O)CNc1nc(NCC(=O)OCC)c([N+](=O)[O-])c(C(=O)OCC)n1 [Compound R925864, N2,N4-Bis(ethoxycarbonylmethyl)-6-ethoxycarbonyl-5-nitro-2,4-pyrimidinediamine] | > 10 | > 10 |
| CCOC(=O)c1cnc(Nc2ccc(CC#N)cc2)nc1Nc1ccc(CC#N)cc1 [Compound R926319, N2,N4-Bis(4-cyanomethylphenyl)-5-ethoxycarbonyl-2,4-pyrimidinediamine] | > 10 | > 10 |
| CC(C)(C)OC(=O)C=Nc1cccc(Nc2ncc(F)c(Nc3cccc(N)c3)n2)c1 [Compound R950178, N4-(3-Aminophenyl)-N2-(3-tert-butoxycarbonylmethyleneaminophenyl)-5-fluoro-2,4-pyrimidinediamine] | > 10 | 0.688 |
| COc1cc(-c2ccccc2)c(C)cc1Nc1ncc(Br)c(Nc2cc(C)c(-c3ccccc3)cc2OC)n1 [Compound R925801, N2,N4-Bis(2-methoxy-5-methyl-4-phenylphenyl)-5-bromo-2,4-pyrimidinediamine] | > 10 | > 10 |
| CCOC(=O)C=Nc1cccc(Nc2nc(N(CC(=O)OCC)c3cccc(N=CC(=O)OCC)c3)ncc2F)c1 [Compound R950183, N2,N4-Bis(3-ethoxycarbonylmethyleneaminophenyl)-N2-(ethoxycarbonylmethyl)-5-fluoro-2,4-pyrimidinediamine] | > 10 | 4.8 |
| Oc1cccc(Nc2cc(-c3ccccc3)nc(Nc3cccc(O)c3)n2)c1 [Compound R925812, N2,N4-Bis(3-hydroxyphenyl)-6-phenyl-2,4-pyrimidinediamine] | > 10 | 5.8 |
| c1coc(-c2cnc(Nc3ccc4c(c3)OCCO4)nc2Nc2ccc3c(c2)OCCO3)c1 [Compound R925785, N2,N4-Bis(3,4-ethylenedioxyphenyl)-5-(2-furanyl)-2,4-pyrimidinediamine] | > 10 | 2.5 |
| COc1ccc(C(Nc2ncc(F)c(NC(c3ccc(OC)cc3)c3ccc(OC)cc3)n2)c2ccc(OC)cc2)cc1 [Compound R935004, N2,N4-Bis[[di-(4-methoxyphenyl)]methyl]-5-fluoro-2,4-pyrimidinediamine] | > 10 | > 10 |
| Oc1c(Cl)cc(Nc2ncc(F)c(Nc3cc(Cl)c(O)c(Cl)c3)n2)cc1Cl [Compound R940215, N2,N4-Bis-(3,5-dichloro-4-hydroxyphenyl)-5-fluoro-2,4-pyrimidinediamine] | > 10 | 0.845 |
| Cc1cc(Nc2ncc(F)c(Nc3ccc4c(c3)OCCO4)n2)c(C)cc1O [Compound R926792, N2-(2,5-Dimethyl-4-hydroxyphenyl)-N4-(3,4-ethylenedioxyphenyl)-5-fluoro-2,4-pyrimidinediamine] | > 10 | 3.2 |

Other lines, results leading:

| IC50 [1] [µM] | IC50 [2] [µM] | SMILES |
| --- | --- | --- |
| > 10 | 1.98 | COC(=O)c1cc(Nc2ncc(F)c(Nc3cccc(O)c3)n2)ccc1OC [Compound R940301, 5-Fluoro-N4-(3-hydroxyphenyl)-N2-(3-methyloxycarbonyl-4-methoxyphenyl)-2,4-pyrimidinediamine] |
| > 10 | 10 | Oc1cccc(Nc2nc(NCc3ccc4c(c3)OCCO4)ncc2F)c1 [Compound R945168, N2-(2,3-Dihydro-1,4-benzodioxin-6-ylmethyl)-5-fluoro-N4-(3-hydroxyphenyl)-2,4-pyrimidinediamine] |
| 10 | 0.133 | Oc1cccc(Nc2nc(Nc3cccc(-c4cnco4)c3)ncc2F)c1 [Compound R926831, 5-Fluoro-N4-(3-hydroxyphenyl)-N2-[3-(1,3-oxazol-5-yl)phenyl]-2,4-pyrimidinediamine] |
| > 10 | 10 | Oc1cccc(Nc2nc(NCc3csc4ccccc34)ncc2F)c1 [Compound R945164, N2-(Benzothiophen-3-ylmethyl)-5-fluoro-N4-(3-hydroxyphenyl)-2,4-pyrimidinediamine] |
| > 10 | 0.049 | COC(=O)C1Cc2cc(Nc3ncc(F)c(Nc4ccc(OC(F)(F)F)c(Cl)c4)n3)ccc2O1 (stereo not shown) [Compound R926953, N4-(3-Chloro-4-trifluoromethoxyphenyl)-5-fluoro-N2-[2,3-dihydro-2-(methoxycarbonyl)benzofuran-5-yl]-2,4-pyrimidinediamine] |
| 6.81 | 1.39 | CCOC(=O)C(C)(C)c1ccc(Nc2nc(Nc3ccc4c(c3)OCCO4)ncc2F)cc1 [Compound R935172, N4-[4-[Ethoxycarbonyl(dimethyl)methyl]phenyl]-N2-(3,4-ethylenedioxyphenyl)-5-fluoro-2,4-pyrimidinediamine] |
| > 10 | 0.627 | CN(C)c1cccc(Nc2ncc(F)c(Nc3cccc(N(C)C)c3)n2)c1 [Compound R950182, N2,N4-Bis[3-(dimethylamino)phenyl]-5-fluoro-2,4-pyrimidinediamine] |
| > 10 | 0.386 | COc1cc(Nc2ncc(F)c(Nc3ccc4c(c3)OCCO4)n2)cc(OC)c1OC [Compound R926762, N4-(3,4-Ethylenedioxyphenyl)-5-fluoro-N2-(3,4,5-trimethoxyphenyl)-2,4-pyrimidinediamine] |
| > 10 | 3.55 | Oc1cccc(Nc2ncc(F)c(NCc3cccnc3)n2)c1 [Compound R945147, 5-Fluoro-N2-(3-hydroxyphenyl)-N4-(3-pyridylmethyl)-2,4-pyrimidinediamine] |
| > 10 | 0.27 | COC(=O)c1cc2cc(Nc3ncc(F)c(Nc4ccc(C(C)(C)C)cc4)n3)ccc2o1 [Compound R926477, N4-(4-tert-Butylphenyl)-5-fluoro-N2-(2-methoxycarbonylbenzofuran-5-yl)-2,4-pyrimidinediamine] |
| > 10 | 0.378 | Oc1cccc(Nc2nc(Nc3ccc(-n4cnc(Cl)c4Cl)cc3)ncc2F)c1 [Compound R926777, N2-[4-(4,5-Dichloro-1H-imidazol-1-yl)phenyl]-5-fluoro-N4-(3-hydroxyphenyl)-2,4-pyrimidinediamine] |
| > 10 | 0.515 | OCCOc1cccc(Nc2ncc(F)c(Nc3ccc4oc(CO)cc4c3)n2)c1 [Compound R935178, 5-Fluoro-N2-[3-(2-hydroxyethyloxy)phenyl]-N4-(2-hydroxymethylbenzofur-5-yl)-2,4-pyrimidinediamine] |
| > 10 | > 10 | N#Cc1cc(Nc2ncc(F)c(Nc3ccc(O)c(C#N)c3)n2)ccc1O [Compound R950092, N2,N4-Bis(3-cyano-4-hydroxyphenyl)-5-fluoro-2,4-pyrimidinediamine] |
